“Also recorded” adds a separate entry of the source.
Test system: BALB/c mice
Assay: OVA-induced food allergy (diarrhea) model
Assay type: in vivo, mouse
Method: BALB/c mice were intraperitoneally sensitised with OVA (50 μg/mouse) plus alum on days 0 and 14. From day 28, mice were intragastrically challenged with OVA (50 mg) three times a week (Brandt, E. B. et al. J. Clin. Invest. 112:1666-1677 (2003)). Before each challenge, mice were starved for 3 h, then pretreated intragastrically with GST or GST-N19 (100 μg), and rested for 30 min. The development of diarrhoea was visually monitored for 90 min after OVA challenge.
To evaluate the role of HRF in food allergy, an OVA-induced food allergy model developed by Brandt et al. (Brandt et al., J. Clin. Invest. 112:1666 (2003)) was employed. BALB/c mice that were 6-8-week-old were intraperitoneal (i.p.) immunized twice on days 0 and 14 with 50 μg of OVA in the presence of alum. From day 28, mice were intragastrically challenged with OVA (50 mg) three times a week. Before each challenge, mice were starved for 3 hours, then pretreated with GST or GST-N19 (100 μg/mouse) intragastrically, and rested for 30 minutes. Control mice were sensitized and challenged, but not pretreated. The development of diarrhea was monitored for ninety minutes after OVA challenge. […] Sections of jejunum and ileum from mice treated as in FIG. 14 were stained with chloroacetate esterase. […] There was a good correlation shown between the number of mucosal mast cells and the number of diarrhea occurrence during 10 OVA challenges (FIG. 15D). Increased serum IgE and IgG1, but not IgG2a, levels (FIG. 16) and increased expression of mRNAs encoding Th2 cytokines (IL-4, IL-5, IL-13) and proinflammatory cytokines (IL-6, IL-1β) in the intestines were observed (data not shown). In this Th2-skewed model, the amount of HRF in plasma from diarrhea-induced mice, as measured by immunoblotting, was increased by about 2 fold compared to PBS control mice (FIG. 16E). […] However, HRF-reactive IgE was not detected under the study conditions.

Question: What does the source list for “GST-N19: GST fusion protein encoding the first 19 residues of mHRF; inhibitor of HRF/Ig interactions”?
Answer: Development of diarrhea (100 μg/mouse intragastrically before each OVA challenge, vs GST-pretreated or PBS-treated control mice): prevented in a much greater percentage of mice; also recorded: prevents; Increase in mucosal mast cells (jejunum and ileum sections): inhibited; Increase in serosal mast cells (jejunum and ileum sections): inhibited; Mastocytosis in the small intestine (mouse, in vivo): inhibits; Plasma level of HRF-reactive IgG (mouse, in vivo): not affected; Plasma level of total IgE (mouse, in vivo): not affected; Plasma level of total IgG1 (mouse, in vivo): not affected; Plasma level of total IgG2a (mouse, in vivo): not affected
